# Measurements published in ChEMBL document CHEMBL3826966, “A chromatography-free isolation of rohitukine from leaves of Dysoxylum binectariferum: Evaluation for in vitro cytotoxicity, Cdk inhibition and physicochemical properties” (Bioorg Med Chem Lett, 2016).
# Assays:
# [1] = target: Dual specificity mitogen-activated protein kinase kinase 2 (Homo sapiens) (UniProt P36507); experiment: Inhibition of human MKK2 (2 to 400 residues) assessed as remaining enzyme activity at 50 uM after 30 mins by 33P-ATP filter-binding assay
# Dual specificity mitogen-activated protein kinase kinase 2 (Homo sapiens), sequence (P36507 whole entry, the tested form may be a part): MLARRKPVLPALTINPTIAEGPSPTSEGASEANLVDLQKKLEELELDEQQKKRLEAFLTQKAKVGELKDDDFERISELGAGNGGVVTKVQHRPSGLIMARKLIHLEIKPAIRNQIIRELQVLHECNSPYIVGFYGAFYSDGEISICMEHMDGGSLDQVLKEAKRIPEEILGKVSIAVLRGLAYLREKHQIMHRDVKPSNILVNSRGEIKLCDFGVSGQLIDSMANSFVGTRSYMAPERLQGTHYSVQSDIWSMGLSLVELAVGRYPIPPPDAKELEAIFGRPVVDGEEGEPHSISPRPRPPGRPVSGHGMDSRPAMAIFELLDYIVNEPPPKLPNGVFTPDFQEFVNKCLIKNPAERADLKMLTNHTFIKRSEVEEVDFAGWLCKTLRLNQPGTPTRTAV
# [2] = target: Homeodomain-interacting protein kinase 1 (Homo sapiens) (UniProt Q86Z02); experiment: Inhibition of human HIPK1 (158 to 555 residues) assessed as remaining enzyme activity at 50 uM after 30 mins by 33P-ATP filter-binding assay
# [3] = target: Interleukin-1 receptor-associated kinase 1 (Homo sapiens) (UniProt P51617); experiment: Inhibition of human IRAK1 (1 to 712 residues) assessed as remaining enzyme activity at 50 uM after 30 mins by 33P-ATP filter-binding assay
# MAP4K2 = experiment: Inhibition of human GCK (2 to 812 residues) assessed as remaining enzyme activity at 50 uM after 30 mins by 33P-ATP filter-binding assay
# [4] = target: Inhibitor of nuclear factor kappa-B kinase subunit beta (Homo sapiens) (UniProt O14920); experiment: Inhibition of human IKKb (1 to 736 residues) assessed as remaining enzyme activity at 50 uM after 30 mins by 33P-ATP filter-binding assay
# Inhibitor of nuclear factor kappa-B kinase subunit beta (Homo sapiens), sequence (O14920 whole entry, the tested form may be a part): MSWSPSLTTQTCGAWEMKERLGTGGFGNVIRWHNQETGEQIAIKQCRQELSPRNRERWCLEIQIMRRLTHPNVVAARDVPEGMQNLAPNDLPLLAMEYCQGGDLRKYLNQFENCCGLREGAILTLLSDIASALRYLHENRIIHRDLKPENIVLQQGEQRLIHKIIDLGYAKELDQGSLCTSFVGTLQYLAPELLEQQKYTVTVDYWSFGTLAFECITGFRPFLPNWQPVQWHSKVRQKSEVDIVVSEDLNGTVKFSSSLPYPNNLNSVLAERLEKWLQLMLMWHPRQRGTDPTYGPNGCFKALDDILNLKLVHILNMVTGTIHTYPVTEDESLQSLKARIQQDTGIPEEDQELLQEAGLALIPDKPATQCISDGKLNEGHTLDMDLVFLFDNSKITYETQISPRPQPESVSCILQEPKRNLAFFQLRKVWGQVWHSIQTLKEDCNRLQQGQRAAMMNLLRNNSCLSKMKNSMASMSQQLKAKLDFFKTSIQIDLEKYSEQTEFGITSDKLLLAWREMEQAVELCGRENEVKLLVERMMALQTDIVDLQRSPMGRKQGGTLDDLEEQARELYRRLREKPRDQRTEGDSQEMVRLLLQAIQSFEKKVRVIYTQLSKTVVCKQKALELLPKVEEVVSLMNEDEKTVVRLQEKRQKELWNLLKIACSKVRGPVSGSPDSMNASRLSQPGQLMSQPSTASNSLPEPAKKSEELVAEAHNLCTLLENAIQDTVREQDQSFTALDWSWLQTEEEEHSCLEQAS
# [5] = target: CDK2/Cyclin A2 (Homo sapiens) (UniProt P24941+P20248); experiment: Inhibition of human Cdk2/cyclin A at 0.5 uM using Histone H1 substrate after 30 mins by 33P-ATP filter-binding assay; assay type: protein-complex assay
# [6] = Cytotoxicity against human SF295 cells assessed as cell growth inhibition after 48 hrs by MTT assay; assay type: functional; details: SF-295, 48 h
# [7] = Cytotoxicity against human HL60 cells assessed as cell growth inhibition after 48 hrs by MTT assay; assay type: functional; details: HL-60, 48 h
# [8] = Thermodynamic equilibrium solubility in stimulated gastric fluid at 120 ug/ml at pH 1.2 by HPLC analysis; assay type: ADME; details: simulated gastric fluid, read-out: Therm_solubility
# [9] = target: Ephrin type-B receptor 1 (Homo sapiens) (UniProt P54762); experiment: Inhibition of human EPHB1 (565 to 984 residues) assessed as remaining enzyme activity at 50 uM after 30 mins by 33P-ATP filter-binding assay
# [10] = target: Serine/threonine-protein kinase tousled-like 1 (Homo sapiens) (UniProt Q9UKI8); experiment: Inhibition of human TLK1 (1 to 766 residues) assessed as remaining enzyme activity at 50 uM after 30 mins by 33P-ATP filter-binding assay
# Serine/threonine-protein kinase tousled-like 1 (Homo sapiens), sequence (Q9UKI8 whole entry, the tested form may be a part): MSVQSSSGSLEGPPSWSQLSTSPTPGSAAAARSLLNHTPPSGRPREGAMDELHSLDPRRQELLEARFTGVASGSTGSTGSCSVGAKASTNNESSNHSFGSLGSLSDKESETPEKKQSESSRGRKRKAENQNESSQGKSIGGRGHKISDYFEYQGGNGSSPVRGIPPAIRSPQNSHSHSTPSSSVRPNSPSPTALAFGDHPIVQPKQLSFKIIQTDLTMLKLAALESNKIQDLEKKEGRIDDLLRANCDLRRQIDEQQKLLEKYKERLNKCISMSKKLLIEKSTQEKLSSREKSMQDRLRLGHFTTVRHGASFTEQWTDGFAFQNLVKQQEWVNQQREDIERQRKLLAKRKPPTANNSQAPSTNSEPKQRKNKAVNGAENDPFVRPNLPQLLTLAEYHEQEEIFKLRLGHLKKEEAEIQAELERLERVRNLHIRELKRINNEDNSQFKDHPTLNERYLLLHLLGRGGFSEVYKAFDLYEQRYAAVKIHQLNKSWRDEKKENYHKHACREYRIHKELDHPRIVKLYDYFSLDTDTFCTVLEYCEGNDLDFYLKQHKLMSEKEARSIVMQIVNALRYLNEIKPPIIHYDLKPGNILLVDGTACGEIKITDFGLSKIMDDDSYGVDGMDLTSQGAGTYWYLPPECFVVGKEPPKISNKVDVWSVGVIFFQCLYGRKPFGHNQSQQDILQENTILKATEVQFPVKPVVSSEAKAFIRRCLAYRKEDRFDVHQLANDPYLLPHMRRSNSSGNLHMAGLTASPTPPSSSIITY
# [11] = Cytotoxicity against human THP1 cells assessed as cell growth inhibition after 48 hrs by MTT assay; assay type: functional; details: THP-1, 48 h
# [12] = Cell cycle arrest in human HL60 cells assessed as accumulation at G2 phase at 10 uM (reference value: 5 %); assay type: functional, cell-based; details: HL-60
# [13] = target: Ribosomal protein S6 kinase alpha-5 (Homo sapiens) (UniProt O75582); experiment: Inhibition of human MSK1 (2 to 802 residues) assessed as remaining enzyme activity at 50 uM after 30 mins by 33P-ATP filter-binding assay
# [14] = target: Serine/threonine-protein kinase Chk1 (Homo sapiens) (UniProt O14757); experiment: Inhibition of human CHK1 (1 to 476 residues) assessed as remaining enzyme activity at 50 uM after 30 mins by 33P-ATP filter-binding assay
# [15] = Cytotoxicity against human DU145 cells assessed as cell growth inhibition after 48 hrs by MTT assay; assay type: functional; details: DU-145, 48 h
# [16] = target: Serine/threonine-protein kinase PAK 4 (Homo sapiens) (UniProt O96013); experiment: Inhibition of human PAK4 (2 to 591 residues) assessed as remaining enzyme activity at 50 uM after 30 mins by 33P-ATP filter-binding assay
# Serine/threonine-protein kinase PAK 4 (Homo sapiens), sequence (O96013 whole entry, looked up, the tested form may be a part): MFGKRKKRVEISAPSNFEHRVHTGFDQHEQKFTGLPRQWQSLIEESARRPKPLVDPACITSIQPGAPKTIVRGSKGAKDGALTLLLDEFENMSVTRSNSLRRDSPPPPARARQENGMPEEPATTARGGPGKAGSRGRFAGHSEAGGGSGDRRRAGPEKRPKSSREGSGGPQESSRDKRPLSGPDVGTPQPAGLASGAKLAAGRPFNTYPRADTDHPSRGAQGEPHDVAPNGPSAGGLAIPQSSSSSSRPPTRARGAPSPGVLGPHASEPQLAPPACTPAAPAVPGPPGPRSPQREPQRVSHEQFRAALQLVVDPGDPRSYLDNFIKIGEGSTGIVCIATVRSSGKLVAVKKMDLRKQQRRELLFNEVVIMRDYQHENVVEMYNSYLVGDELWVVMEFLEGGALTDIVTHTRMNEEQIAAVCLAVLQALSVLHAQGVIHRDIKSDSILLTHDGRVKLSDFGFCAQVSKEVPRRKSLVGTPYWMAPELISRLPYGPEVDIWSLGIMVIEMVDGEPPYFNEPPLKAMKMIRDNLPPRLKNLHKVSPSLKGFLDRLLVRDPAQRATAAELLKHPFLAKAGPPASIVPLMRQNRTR
# [17] = Cytotoxicity against human SF539 cells assessed as cell growth inhibition after 48 hrs by MTT assay; assay type: functional; details: SF-539, 48 h
# LNCaP = experiment: Cytotoxicity against human LNCAP cells assessed as cell growth inhibition after 48 hrs by MTT assay; assay type: functional
# [18] = target: Serine/threonine-protein kinase PLK1 (Homo sapiens) (UniProt P53350); experiment: Inhibition of human PLK1 (1 to 603 residues) assessed as remaining enzyme activity at 50 uM after 30 mins by 33P-ATP filter-binding assay
# Serine/threonine-protein kinase PLK1 (Homo sapiens), sequence (P53350 whole entry, the tested form may be a part): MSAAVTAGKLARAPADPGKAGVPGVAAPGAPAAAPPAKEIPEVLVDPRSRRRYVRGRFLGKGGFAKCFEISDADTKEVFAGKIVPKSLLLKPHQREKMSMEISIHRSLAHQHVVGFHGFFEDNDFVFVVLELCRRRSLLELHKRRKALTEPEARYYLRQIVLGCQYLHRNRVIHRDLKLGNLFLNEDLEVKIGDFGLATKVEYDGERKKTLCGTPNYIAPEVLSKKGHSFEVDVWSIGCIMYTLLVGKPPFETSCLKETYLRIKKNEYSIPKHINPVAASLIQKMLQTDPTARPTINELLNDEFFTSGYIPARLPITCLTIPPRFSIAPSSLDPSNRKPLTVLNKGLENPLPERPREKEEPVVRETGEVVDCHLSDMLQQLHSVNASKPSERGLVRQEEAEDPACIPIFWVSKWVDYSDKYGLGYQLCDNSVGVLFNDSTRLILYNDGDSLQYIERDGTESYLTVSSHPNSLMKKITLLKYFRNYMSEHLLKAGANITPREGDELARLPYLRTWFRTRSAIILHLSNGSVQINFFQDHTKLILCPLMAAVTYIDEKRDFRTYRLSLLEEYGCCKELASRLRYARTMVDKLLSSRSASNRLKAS
# [19] = target: Dual specificity mitogen-activated protein kinase kinase 6 (Homo sapiens) (UniProt P52564); experiment: Inhibition of human MKK6 (2 to 334 residues) assessed as remaining enzyme activity at 50 uM after 30 mins by 33P-ATP filter-binding assay
# [20] = target: Serine/threonine-protein kinase Sgk1 (Homo sapiens) (UniProt O00141); experiment: Inhibition of human SGK1 assessed as remaining enzyme activity at 50 uM after 30 mins by 33P-ATP filter-binding assay
# [21] = target: Mitogen-activated protein kinase 12 (Homo sapiens) (UniProt P53778); experiment: Inhibition of human p38gamma MAPK (1 to 367 residues) assessed as remaining enzyme activity at 50 uM after 30 mins by 33P-ATP filter-binding assay
# [22] = target: Serine/threonine-protein kinase MARK1 (Homo sapiens) (UniProt Q9P0L2); experiment: Inhibition of human MARK1 (2 to 795 residues) assessed as remaining enzyme activity at 50 uM after 30 mins by 33P-ATP filter-binding assay
# [23] = target: Angiopoietin-1 receptor (Homo sapiens) (UniProt Q02763); experiment: Inhibition of human TIE2 (771 to 1124 residues) assessed as remaining enzyme activity at 50 uM after 30 mins by 33P-ATP filter-binding assay
# Angiopoietin-1 receptor (Homo sapiens), sequence (Q02763 whole entry, the tested form may be a part): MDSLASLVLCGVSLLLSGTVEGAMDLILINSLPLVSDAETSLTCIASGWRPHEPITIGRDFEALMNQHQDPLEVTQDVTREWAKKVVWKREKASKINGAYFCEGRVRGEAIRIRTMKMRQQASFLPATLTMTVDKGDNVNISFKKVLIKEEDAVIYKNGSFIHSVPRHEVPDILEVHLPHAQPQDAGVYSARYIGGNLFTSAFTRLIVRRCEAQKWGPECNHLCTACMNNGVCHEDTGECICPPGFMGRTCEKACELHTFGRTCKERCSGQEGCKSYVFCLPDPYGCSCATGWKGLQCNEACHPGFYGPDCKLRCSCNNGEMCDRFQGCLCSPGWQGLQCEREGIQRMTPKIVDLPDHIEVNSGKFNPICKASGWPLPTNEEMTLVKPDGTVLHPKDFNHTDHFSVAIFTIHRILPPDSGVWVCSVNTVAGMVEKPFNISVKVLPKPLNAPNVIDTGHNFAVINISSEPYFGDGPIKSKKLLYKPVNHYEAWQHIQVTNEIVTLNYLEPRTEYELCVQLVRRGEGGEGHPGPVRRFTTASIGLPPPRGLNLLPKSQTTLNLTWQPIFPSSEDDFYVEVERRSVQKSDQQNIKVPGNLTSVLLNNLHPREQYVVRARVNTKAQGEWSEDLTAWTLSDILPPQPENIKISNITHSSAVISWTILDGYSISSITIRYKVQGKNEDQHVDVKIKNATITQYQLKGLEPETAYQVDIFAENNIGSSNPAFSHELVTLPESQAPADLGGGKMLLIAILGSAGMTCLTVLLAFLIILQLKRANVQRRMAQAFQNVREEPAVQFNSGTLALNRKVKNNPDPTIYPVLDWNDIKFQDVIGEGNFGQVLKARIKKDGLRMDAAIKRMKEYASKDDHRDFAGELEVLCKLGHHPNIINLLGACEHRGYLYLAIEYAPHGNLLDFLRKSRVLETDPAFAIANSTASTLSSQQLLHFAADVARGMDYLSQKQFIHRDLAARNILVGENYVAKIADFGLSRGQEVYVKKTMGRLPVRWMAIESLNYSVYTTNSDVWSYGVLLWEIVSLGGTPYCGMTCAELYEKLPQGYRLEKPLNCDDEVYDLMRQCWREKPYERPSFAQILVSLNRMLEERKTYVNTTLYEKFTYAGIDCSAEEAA
# [24] = target: Mitogen-activated protein kinase kinase kinase 11 (Homo sapiens) (UniProt Q16584); experiment: Inhibition of human MLK3 (96 to 386 residues) assessed as remaining enzyme activity at 50 uM after 30 mins by 33P-ATP filter-binding assay
# [25] = target: MAP/microtubule affinity-regulating kinase 3 (Homo sapiens) (UniProt P27448); experiment: Inhibition of human MARK3 (2 to 729 residues) assessed as remaining enzyme activity at 50 uM after 30 mins by 33P-ATP filter-binding assay
# MAP/microtubule affinity-regulating kinase 3 (Homo sapiens), sequence (P27448 whole entry, looked up, the tested form may be a part): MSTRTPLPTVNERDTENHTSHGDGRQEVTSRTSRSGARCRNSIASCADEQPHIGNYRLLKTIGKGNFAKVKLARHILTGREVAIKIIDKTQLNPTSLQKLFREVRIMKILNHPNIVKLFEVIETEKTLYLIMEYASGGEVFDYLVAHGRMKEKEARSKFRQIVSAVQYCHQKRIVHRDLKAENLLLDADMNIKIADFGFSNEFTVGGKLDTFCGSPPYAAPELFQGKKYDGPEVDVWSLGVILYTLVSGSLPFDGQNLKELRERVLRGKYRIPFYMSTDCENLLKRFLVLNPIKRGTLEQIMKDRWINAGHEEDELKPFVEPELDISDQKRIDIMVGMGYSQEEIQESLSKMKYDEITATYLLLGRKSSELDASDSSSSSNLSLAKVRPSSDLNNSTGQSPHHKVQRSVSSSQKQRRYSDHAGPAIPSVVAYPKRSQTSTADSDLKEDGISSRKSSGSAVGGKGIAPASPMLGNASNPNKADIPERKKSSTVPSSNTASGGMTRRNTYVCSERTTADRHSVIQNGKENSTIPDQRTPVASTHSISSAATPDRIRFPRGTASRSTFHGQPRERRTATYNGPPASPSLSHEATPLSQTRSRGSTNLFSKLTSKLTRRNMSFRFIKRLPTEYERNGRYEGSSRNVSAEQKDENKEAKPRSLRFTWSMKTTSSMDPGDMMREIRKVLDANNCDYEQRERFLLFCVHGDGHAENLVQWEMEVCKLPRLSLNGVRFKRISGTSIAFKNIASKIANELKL
# [26] = target: Vascular endothelial growth factor receptor (Homo sapiens) (UniProt P17948+P35916+P35968); experiment: Inhibition of human VEGFR assessed as remaining enzyme activity at 50 uM after 30 mins by 33P-ATP filter-binding assay; assay type: protein assay
# [27] = target: Mitogen-activated protein kinase 3 (Homo sapiens) (UniProt P27361); experiment: Inhibition of human ERK1 (1 to 379) assessed as remaining enzyme activity at 50 uM after 30 mins by 33P-ATP filter-binding assay
# [28] = target: Casein kinase I isoform delta (Homo sapiens) (UniProt P48730); experiment: Inhibition of human CK1delta (1 to 415 residues) assessed as remaining enzyme activity at 50 uM after 30 mins by 33P-ATP filter-binding assay
# U-251 = experiment: Cytotoxicity against human U251 cells assessed as cell growth inhibition after 48 hrs by MTT assay; assay type: functional; details: U-251, 48 h
compound,measurement,setting,value
Cc1cc(=O)c2c(O)cc(O)c([C@H]3CCN(C)C[C@H]3O)c2o1 [ROHITUKINE],Activity,[1],44%
same,Activity,[2],96%
same,Activity,[3],55%
same,Activity,MAP4K2,17%
same,Activity,[4],83%
same,inhibition,[5],10%
same,GI50,[6],27 µM
same,GI50,[7],10 µM
same,solubility thermodynamic,[8],33.4 mg/mL
same,Activity,[9],54%
same,Activity,[10],109%
same,GI50,[11],28 µM
same,Activity,[12],4%
same,Activity,[13],30%
same,Activity,[14],52%
same,GI50,[15],26 µM
same,Activity,[16],83%
same,GI50,[17],30 µM
same,GI50,LNCaP,30 µM
same,Activity,[18],96%
same,Activity,[19],89%
same,Activity,[20],92%
same,Activity,[21],27%
same,Activity,[22],67%
same,Activity,[23],80%
same,Activity,[24],58%
same,Activity,[25],41%
same,Activity,[26],18%
same,Activity,[27],86%
same,Activity,[28],78%
same,GI50,U-251,32 µM
